Source: patent US12590062B2, “PD-1/PD-L1 inhibitors” (Gilead Sciences, Inc., priority 2017, dated 2026)

Columns and labels:
PD-1/PD-L1 = PD-1/PD-L1 (Homo sapiens, UniProt Q9NZQ7); assay: PD-1/PD-L1 biochemical protein-protein interaction assay (ALPHA); format: binding; conditions: 0.3 nM His tagged PD-L1, 2.5 nM biotinylated Fc-PD-1, 60 minutes at 25° C., read-out: IC50 PD-L1-PD-1 Alpha IC50-mono PD-L1-fcP-D1
Outline: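 Final concentrations 0.3 nM His-tagged PD-L1 and 2.5 nM biotinylated Fc-PD-1 (extracellular domains) were reacted with compound for 60 min at 25° C in pH 7.4 Hepes/NaCl/EDTA/Tween/BSA buffer. Binding was then detected by ALPHA beads, and IC50 values were taken from four-parameter curve fitting.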

PD-1/PD-L1 interaction = molecular target: T1, PD-1/PD-L1 interaction (Homo sapiens, UniProt Q9NZQ7); assay: PD-1/PD-L1 NFAT reporter co-culture assay; format: cell-based; conditions: Jurkat PD-1 NFAT-luciferase cells co-cultured with aAPC-PD-L1 CHO cells, 6 hrs at 37° C.; read-out: EC50 NFAT Luciferase
T1 construct: expressed in transfected cells; host or cells: CHO cells (aAPC-PD-L1) co-cultured with Jurkat cells overexpressing PD-1 and an NFAT-luciferase reporter
T1 sequence (Q9NZQ7 19-290): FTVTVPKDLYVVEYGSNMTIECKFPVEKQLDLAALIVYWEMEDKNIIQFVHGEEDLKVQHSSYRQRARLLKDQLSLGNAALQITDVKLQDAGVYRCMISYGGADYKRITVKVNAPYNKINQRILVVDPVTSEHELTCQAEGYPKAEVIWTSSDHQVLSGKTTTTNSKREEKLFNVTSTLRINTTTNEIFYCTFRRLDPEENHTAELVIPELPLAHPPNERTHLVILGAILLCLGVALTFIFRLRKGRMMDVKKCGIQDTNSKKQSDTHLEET
Outline: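 Compounds are scored by restoration of NFAT-luciferase signal in PD-1-expressing Jurkat cells cultured 6 h at 37 °C on CHO cells presenting anti-CD3 and PD-L1; EC50 values derive from four-parameter curve fitting.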

Sequence of PD-1/PD-L1 (Q9NZQ7 19-238 limits assumed): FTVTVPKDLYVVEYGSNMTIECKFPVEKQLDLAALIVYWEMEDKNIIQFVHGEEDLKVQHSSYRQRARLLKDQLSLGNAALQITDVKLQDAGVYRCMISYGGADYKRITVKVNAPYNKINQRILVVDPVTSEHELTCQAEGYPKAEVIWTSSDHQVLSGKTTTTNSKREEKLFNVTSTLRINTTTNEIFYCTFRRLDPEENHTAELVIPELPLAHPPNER

Cc1c(COc2cc(OCc3cncc(C#N)c3)c(CN3CC[C@@H]3CO)cc2Br)cccc1-c1cccc(COc2cc(OCc3cncc(C#N)c3)c(CN3CC[C@@H]3CO)cc2Br)c1C [Example 258, 5,5′-((((((2,2′-dimethyl-[1,1′-biphenyl]-3,3′-diyl)bis(methylene))bis(oxy))bis(4-bromo-6-(((R)-2-(hydroxymethyl)azetidin-1-yl)methyl)-3,1-phenylene))bis(oxy))bis(methylene))dinicotinonitrile]
IC50 (PD-1/PD-L1): 6.3 nM
EC50 (PD-1/PD-L1 interaction): 419 nM

Cc1c(COc2cc(OCc3cncc(C#N)c3)c(CNC[C@H](O)CO)cc2Br)cccc1-c1cccc(COc2cc(OCc3cncc(C#N)c3)c(CNC[C@H](O)CO)cc2Br)c1C [Example 259, 5,5′-((((((2,2′-dimethyl-[1,1′-biphenyl]-3,3′-diyl)bis(methylene))bis(oxy))bis(4-bromo-6-((((S)-2,3-dihydroxypropyl)amino)methyl)-3,1-phenylene))bis(oxy))bis(methylene))dinicotinonitrile]
IC50 (PD-1/PD-L1): 22.7 nM
EC50 (PD-1/PD-L1 interaction): 511 nM

Cc1c(COc2cc(OCc3cncc(C#N)c3)c(CNCc3ncc[nH]3)cc2Br)cccc1-c1cccc(COc2cc(OCc3cncc(C#N)c3)c(CNCc3ncc[nH]3)cc2Br)c1C [Example 261, 5,5′-((((((2,2′-dimethyl-[1,1′-biphenyl]-3,3′-diyl)bis(methylene))bis(oxy))bis(6-((((1H-imidazol-2-yl)methyl)amino)methyl)-4-bromo-3,1-phenylene))bis(oxy))bis(methylene))dinicotinonitrile]
IC50 (PD-1/PD-L1): 120 nM
EC50 (PD-1/PD-L1 interaction): 3170 nM

Cc1c(COc2cc(OCc3nccs3)c(CNC[C@@H](O)CC(=O)O)cc2Cl)cccc1-c1cccc(COc2cc(OCc3nccs3)c(CNC[C@@H](O)CC(=O)O)cc2Cl)c1C [Example 262, (3S,3′S)-4,4′-((((((2,2′-dimethyl-[1,1′-biphenyl]-3,3′-diyl)bis(methylene))bis(oxy))bis(5-chloro-2-(thiazol-2-ylmethoxy)-4,1-phenylene))bis(methylene))bis(azanediyl))bis(3-hydroxybutanoic acid)]
IC50 (PD-1/PD-L1): 1.5 nM
EC50 (PD-1/PD-L1 interaction): 8620 nM

COc1nc(OCc2cccc(-c3cccc(COc4nc(OC)c(CNC[C@@H](O)CC(=O)O)cc4S(C)(=O)=O)c3C)c2C)c(S(C)(=O)=O)cc1CNC[C@@H](O)CC(=O)O [Example 263, (3S,3′S)-4,4′-((((((2,2′-dimethyl-[1,1′-biphenyl]-3,3′-diyl)bis(methylene))bis(oxy))bis(2-methoxy-5-(methylsulfonyl)pyridine-6,3-diyl))bis(methylene))bis(azanediyl))bis(3-hydroxybutanoic acid)]
IC50 (PD-1/PD-L1): 1.8 nM
EC50 (PD-1/PD-L1 interaction): 36400 nM

Cc1c(COc2ccc(CNC[C@@H](O)CC(=O)O)c(OCc3cc(C#N)ccc3F)c2)cccc1-c1cccc(COc2ccc(CNC[C@@H](O)CC(=O)O)c(OCc3cc(C#N)ccc3F)c2)c1C [Example 265, (3S,3′S)-4,4′-((((((2,2′-dimethyl-[1,1′-biphenyl]-3,3′-diyl)bis(methylene))bis(oxy))bis(2-((5-cyano-2-fluorobenzyl)oxy)-4,1-phenylene))bis(methylene))bis(azanediyl))bis(3-hydroxybutanoic acid)]
IC50 (PD-1/PD-L1): 3.2 nM
EC50 (PD-1/PD-L1 interaction): 7060 nM

N#Cc1cncc(COc2cc(C(=O)N3CCc4c(-c5cccc6c5CCN6C(=O)c5ccc(CNC[C@@H](O)CC(=O)O)c(OCc6cncc(C#N)c6)c5)cccc43)ccc2CNC[C@@H](O)CC(=O)O)c1 [Example 267, (3S,3′S)-4,4′-(((([4,4′-biindoline]-1,1′-dicarbonyl)bis(2-((5-cyanopyridin-3-yl)methoxy)-4,1-phenylene))bis(methylene))bis(azanediyl))bis(3-hydroxybutanoic acid)]
IC50 (PD-1/PD-L1): 1.1 nM
EC50 (PD-1/PD-L1 interaction): 8540 nM

Cc1c(COc2nc(OCc3ccc(N4CCOCC4)nc3)c(CNC[C@@H](O)CC(=O)O)cc2Br)cccc1-c1cccc(COc2nc(OCc3ccc(N4CCOCC4)nc3)c(CNC[C@@H](O)CC(=O)O)cc2Br)c1C [Example 269, (3S,3′S)-4,4′-((((((2,2′-dimethyl-[1,1′-biphenyl]-3,3′-diyl)bis(methylene))bis(oxy))bis(5-bromo-2-((6-morpholinopyridin-3-yl)methoxy)pyridine-6,3-diyl))bis(methylene))bis(azanediyl))bis(3-hydroxybutanoic acid)]
IC50 (PD-1/PD-L1): 12.3 nM
EC50 (PD-1/PD-L1 interaction): ≥ 50000 nM

CCOc1nc(OCc2cccc(-c3cccc(COc4ccc(CNCCO)c(OCC)n4)c3C)c2C)ccc1CNCCO [Example 271, 2,2′-((((((2,2′-dimethyl-[1,1′-biphenyl]-3,3′-diyl)bis(methylene))bis(oxy))bis(2-ethoxypyridine-6,3-diyl))bis(methylene))bis(azanediyl))bis(ethan-1-ol)]
IC50 (PD-1/PD-L1): 56 nM
EC50 (PD-1/PD-L1 interaction): ≥ 50000 nM

Cc1c(COc2ccc(CNC[C@@H](O)CC(=O)O)c(-c3cncc(C#N)c3)c2)cccc1-c1cccc(COc2ccc(CNC[C@@H](O)CC(=O)O)c(-c3cncc(C#N)c3)c2)c1C [Example 272, (3S,3′S)-4,4′-((((((2,2′-dimethyl-[1,1′-biphenyl]-3,3′-diyl)bis(methylene))bis(oxy))bis(2-(5-cyanopyridin-3-yl)-4,1-phenylene))bis(methylene))bis(azanediyl))bis(3-hydroxybutanoic acid)]
IC50 (PD-1/PD-L1): 2.5 nM
EC50 (PD-1/PD-L1 interaction): 37700 nM

Cc1c(COc2cc(OCc3nc4ccccc4[nH]3)c(CNC[C@@H](O)CC(=O)O)cc2Cl)cccc1-c1cccc(COc2cc(OCc3nc4ccccc4[nH]3)c(CNC[C@@H](O)CC(=O)O)cc2Cl)c1C [Example 273, (3S,3′S)-4,4′-((((((2,2′-dimethyl-[1,1′-biphenyl]-3,3′-diyl)bis(methylene))bis(oxy))bis(2-((1H-benzo[d]imidazol-2-yl)methoxy)-5-chloro-4,1-phenylene))bis(methylene))bis(azanediyl))bis(3-hydroxybutanoic acid)]
IC50 (PD-1/PD-L1): 200 nM
EC50 (PD-1/PD-L1 interaction): ≥ 50000 nM

Cc1c(COc2cc(OCc3cncc(C#N)c3)c(CNCc3ccccn3)cc2Br)cccc1-c1cccc(COc2cc(OCc3cncc(C#N)c3)c(CNCc3ccccn3)cc2Br)c1C [Example 275, 5,5′-((((((2,2′-dimethyl-[1,1′-biphenyl]-3,3′-diyl)bis(methylene))bis(oxy))bis(4-bromo-6-(((pyridin-2-ylmethyl)amino)methyl)-3,1-phenylene))bis(oxy))bis(methylene))dinicotinonitrile]
IC50 (PD-1/PD-L1): 154 nM
EC50 (PD-1/PD-L1 interaction): 10400 nM

Cc1c(COc2cc(OCc3cncc(C#N)c3)c(CNC[C@@H](F)C(C)(C)O)cc2Cl)cccc1-c1cccc(COc2cc(OCc3cncc(C#N)c3)c(CNC[C@@H](F)C(C)(C)O)cc2Cl)c1C [Example 276, 5,5′-((((((2,2′-dimethyl-[1,1′-biphenyl]-3,3′-diyl)bis(methylene))bis(oxy))bis(4-chloro-6-((((R)-2-fluoro-3-hydroxy-3-methylbutyl)amino)methyl)-3,1-phenylene))bis(oxy))bis(methylene))dinicotinonitrile]
IC50 (PD-1/PD-L1): 77.8 nM
EC50 (PD-1/PD-L1 interaction): 2050 nM

Cc1c(COc2cc(O)c(CNC[C@@H](F)C(C)(C)O)cc2Cl)cccc1-c1cccc(COc2cc(OCc3cncc(C#N)c3)c(CNC[C@@H](F)C(C)(C)O)cc2Cl)c1C [Example 277, 5-((4-chloro-5-((3′-((2-chloro-4-((((R)-2-fluoro-3-hydroxy-3-methylbutyl)amino)methyl)-5-hydroxyphenoxy)methyl)-2,2′-dimethyl-[1,1′-biphenyl]-3-yl)methoxy)-2-((((R)-2-fluoro-3-hydroxy-3-methylbutyl)amino)methyl)phenoxy)methyl)nicotinonitrile]
IC50 (PD-1/PD-L1): 125 nM
EC50 (PD-1/PD-L1 interaction): ≥ 50000 nM

Cc1c(COc2cc(OCc3cncc(C#N)c3)c(CNC(CO)CO)cc2Cl)cccc1-c1cccc(COc2cc(OCc3cncc(C#N)c3)c(CNC(CO)CO)cc2Cl)c1C [Example 281, 5,5′-((((((2,2′-dimethyl-[1,1′-biphenyl]-3,3′-diyl)bis(methylene))bis(oxy))bis(4-chloro-6-(((1,3-dihydroxypropan-2-yl)amino)methyl)-3,1-phenylene))bis(oxy))bis(methylene))dinicotinonitrile]
IC50 (PD-1/PD-L1): 8.7 nM
EC50 (PD-1/PD-L1 interaction): 488 nM

Cc1c(COc2ccc(CNC[C@@H](O)CC(=O)O)cc2Cl)cccc1-c1cccc(COc2ccc(CNC[C@@H](O)CC(=O)O)cc2Cl)c1C [Example 283, (3S,3′S)-4,4′-((((((2,2′-dimethyl-[1,1′-biphenyl]-3,3′-diyl)bis(methylene))bis(oxy))bis(3-chloro-4,1-phenylene))bis(methylene))bis(azanediyl))bis(3-hydroxybutanoic acid)]
IC50 (PD-1/PD-L1): 0.8 nM
EC50 (PD-1/PD-L1 interaction): 20900 nM

CCOC(=O)CNCc1cc(Cl)c(O[C@H]2CCc3c(-c4cccc5c4CC[C@@H]5Oc4nc(OC)c(CNCC(=O)OCC)cc4Cl)cccc32)nc1OC [Example 287, Diethyl 2,2′-((((((1S,1′S)-2,2′,3,3′-tetrahydro-1H,1′H-[4,4′-biindene]-1,1′-diyl)bis(oxy))bis(5-chloro-2-methoxypyridine-6,3-diyl))bis(methylene))bis(azanediyl))diacetate]
IC50 (PD-1/PD-L1): 457 nM
EC50 (PD-1/PD-L1 interaction): 958 nM

CC(CO)(NCc1cc(Cl)c(O[C@H]2CCc3c(-c4cccc5c4CC[C@@H]5Oc4nc(OCc5cncc(S(C)(=O)=O)c5)c(CNC(C)(CO)C(=O)O)cc4Cl)cccc32)nc1OCc1cncc(S(C)(=O)=O)c1)C(=O)O (some centres unmarked) [Example 298]
IC50 (PD-1/PD-L1): 0.051 nM
EC50 (PD-1/PD-L1 interaction): 21 nM

Cc1c(COc2cc(OCc3cncc(C#N)c3)c(CNC[C@@H](O)CC(=O)O)cc2Cl)cccc1-c1cccc(-c2ccc(OCCNC[C@@H](O)CC(=O)O)c(F)c2)c1C [Example 314]
IC50 (PD-1/PD-L1): 0.064 nM
EC50 (PD-1/PD-L1 interaction): 188 nM
